From article PMC10456296, “Trichoderols B-G, Six New Lipids from the Marine Algicolous Fungus Trichoderma sp. Z43” (Marine Drugs, 2023)
Converted amounts (≈) assume the structure as drawn. Like-named read-outs stand apart in the source and are kept apart here.

Experiments:
[1] = test system: Heterocapsa circularisquama; assay: Antimicroalgal activity, inhibition of marine phytoplankton; conditions: for IC50: Heterocapsa circularisquama, 24 h, read-out: IC50 Heterocapsa circularisquama
[2] = test system: Glomerella cingulata; assay: Antifungal activity, microdilution method in 96-well plate; format: cell-based; conditions: Colletotrichum gloeosporioides; microdilution in PDB, 28 °C, 48 h
[3] = test system: Amphidinium carterae; assay: Antimicroalgal activity, inhibition of marine phytoplankton; conditions: for IC50: Amphidinium carterae, 24 h, read-out: IC50 Amphidinium carterae
[4] = test system: three phytopathogenic fungi (Fusarium graminearum, Gaeumannomyces graminis, and Glomerella cingulata); assay: organism not typed; format: cell-based; conditions: for MIC: read-out: MIC against the three phytopathogenic fungi tested, summary over three fungi; for antifungal activity (in words): summary over three fungi
[5] = test system: Gaeumannomyces graminis; assay: Antifungal activity, microdilution method in 96-well plate; format: cell-based; conditions: 48 h, read-out: MIC Gaeumannomyces graminis
[6] = test system: Fusarium graminearum; assay: microbe, parasite or virus in culture; format: cell-based; conditions: 48 h, read-out: MIC Fusarium graminearum
[7] = test system: Heterosigma akashiwo; assay: Antimicroalgal activity, inhibition of marine phytoplankton; conditions: for IC50: Heterosigma akashiwo, 24 h, read-out: IC50 Heterosigma akashiwo
[8] = test system: Prorocentrum donghaiense; assay: as above; conditions: for IC50: Prorocentrum donghaiense, 24 h, read-out: IC50 Prorocentrum donghaiense
[9] = test system: Artemia salina; assay: Brine shrimp lethal activity; format: in vivo; conditions: 24 h
Protocol: The inhibition of the brine shrimp Artermia salina was assayed according to the procedures described in our previous report. In brief, brine shrimp eggs were left to hatch in sea water for 48 h at 25 °C under natural light. […] The lethality was observed after 24 h of cultivation.

| SMILES | IC50 [1] [µg/mL] | MIC [2] [µg/mL] | IC50 [3] [µg/mL] | MIC [4] [µg/mL] | antifungal activity (in words) [4] | MIC [5] [µg/mL] | MIC [6] [µg/mL] | IC50 [7] [µg/mL] | IC50 [8] [µg/mL] | MIC ([5]; microdilution in PDB, 28 °C) [µg/mL] | IC50 Heterocapsa circularisquama ([1]; live cells counted after 24 h) [µg/mL] | IC50 Amphidinium carterae ([3]; live cells counted after 24 h) [µg/mL] | IC50 Heterosigma akashiwo ([7]; live cells counted after 24 h) [µg/mL] | IC50 Prorocentrum donghaiense ([8]; live cells counted after 24 h) [µg/mL] | Lethal Rate (at 100 μg/mL) Artemia salina [9] [%] |
| --- | --- | --- | --- | --- | --- | --- | --- | --- | --- | --- | --- | --- | --- | --- | --- |
| CC=CCCC1(O)OC(C(O)C=CC)CC1O (stereo not drawn) [Compound 1, Trichoderol B] | 24 (≈ 99 µM) | 64 (≈ 264 µM) | 15 (≈ 61.9 µM) | 64 to 256 (≈ 264 to 1060 µM) | weak antifungal activity | 256 (≈ 1060 µM) | 256 (≈ 1060 µM) | 28 (≈ 116 µM) | 22 (≈ 90.8 µM) | – | – | – | – | – | – |
| C/C=C/CCC(O)C(O)/C=C/C=C/C(O)CO (stereo not drawn) [Compound 2, (3E,5E,11E)-trideca-3,5,11-trien-1,2,7,8-tetraol] | > 100 | > 256 | 61 (≈ 252 µM) | – | – | – | > 256 | 43 (≈ 177 µM) | 37 (≈ 153 µM) | > 256 | – | – | – | – | – |
| [K+].[K+].[O]=[Cr](=[O])([O-])[O][Cr](=[O])(=[O])[O-] [Compound K2Cr2O7, K2Cr2O7, reference compound] | – | – | – | – | – | – | – | – | – | – | 1.0 | 1.2 | 0.8 | 1.4 | 100 |
| C/C=C/CCC(O)C(O)C/C=C/CO (stereo not drawn) [Compound 6, (2E,9E)-undeca-2,9-dien-1,5,6-triol] | > 100 | > 256 | 44 (≈ 220 µM) | – | – | – | > 256 | 82 (≈ 409 µM) | > 100 | > 256 | – | – | – | – | – |
| C[C@@H]1[C@H](O)[C@@H](C)/C=C/C=C/C=C/C=C/C=C/C=C/C=C/[C@H](O[C@@H]2O[C@H](C)[C@@H](O)[C@H](N)[C@@H]2O)C[C@@H]2O[C@](O)(C[C@@H](O)C[C@@H](O)[C@H](O)CC[C@@H](O)C[C@@H](O)CC(=O)O[C@H]1C)C[C@H](O)[C@H]2C(=O)O [amphotericin B, reference compound] | – | 1 (≈ 1.08 µM) | – | – | – | – | 2 (≈ 2.16 µM) | – | – | 2 (≈ 2.16 µM) | – | – | – | – | – |
| C/C=C/CCC(O)C(O)C/C=C/CC(C)O (stereo not drawn) [Compound 5, (4E,11E)-trideca-4,11-dien-2,7,8-triol] | 68 (≈ 298 µM) | > 256 | 50 (≈ 219 µM) | – | – | – | > 256 | > 100 | > 100 | > 256 | – | – | – | – | – |
| C=CCC(O)/C=C/C(O)C(O)CC/C=C/C (stereo not drawn) [Compound 3, (5E,11E)-trideca-1,5,11-trien-4,7,8-triol] | 78 (≈ 345 µM) | > 256 | 66 (≈ 292 µM) | – | – | – | > 256 | > 100 | > 100 | > 256 | – | – | – | – | – |
| C/C=C/CCC(O)C(O)C/C=C/C(O)C(C)O (stereo not drawn) [Compound 4, (4E,11E)-trideca-4,11-diene-2,3,7,8-tetraol] | > 100 | 128 (≈ 524 µM) | > 100 | ≥ 64 | weak antifungal activity | – | > 256 | 53 (≈ 217 µM) | 42 (≈ 172 µM) | 256 (≈ 1050 µM) | – | – | – | – | – |
| C/C=C/CC[C@@H](O)[C@@H](O)C/C=C/[C@@H](O)[C@H](C)O [Compound 7, triharzianin B] | > 100 | 128 (≈ 524 µM) | > 100 | ≥ 64 | weak antifungal activity | – | > 256 | 49 (≈ 201 µM) | 30 (≈ 123 µM) | 256 (≈ 1050 µM) | – | – | – | – | – |
